This is an account of results in patent publication US20030027286A1, “Bacterial promoters and methods of use” (priority 2000, published 2003).

The structures appear in SMILES notation.

Experiment [1] has as its system Staphylococcus aureus cells expressing antisense to the β subunit of gyrase. The experiment is described as follows: Antibiotic IC50 plus/minus xylose in Staphylococcus aureus expressing antisense to gyrase β subunit. In kind it is cell-based. Conditions: antisense to gyrase β subunit under Xyl-T5; 12 mM vs 0 mM xylose; FIG. 15. The protocol: Sensitized cells were also used to identify the pathway in which a gene required for proliferation of Staphylococcus aureus lies. Antibiotics of various chemical classes and modes of action were purchased from chemical suppliers, for example Sigma Chemicals (St. Louis, Mo.). Stock solutions were prepared by dissolving each antibiotic in an appropriate aqueous solution based on information provided by the manufacturer. The final working solution of each antibiotic contained no more than 0.2% (w/v) of any organic solvent.
To determine its potency against a bacterial strain containing an antisense nucleic acid complementary to the sequence encoding the Beta (>) subunit of gyrase (which is required for proliferation) under the control of the Xyl-T5 fusion promoter, each antibiotic was serially diluted two or three fold in growth medium supplemented with the appropriate antibiotic for maintenance of the anti-sense construct. At least ten dilutions were prepared for each antibiotic.
Aliquots (25 μL) of each dilution were transferred to discrete wells of a 384-well microplate (the assay plate) using a multi-channel pipette. Quadruplicate wells were used for each dilution of an antibiotic under each treatment condition (plus and minus inducer). Each assay plate retained twenty wells for cell growth controls (growth media replacing antibiotic), ten wells for each treatment (plus and minus inducer, in this example xylose). Half the assay plate contained induced cells (in this example Staphylococcus aureus cells) and appropriate concentrations of inducer (in this example xylose) to maintain the state of induction while the other half of the assay plate contained non-induced cells in the absence of inducer.
Cells of a bacterial clone containing a construct in which expression of antisense complementary to the sequence encoding the β subunit of gyrase under the control of a xylose inducible promoter were grown into exponential growth (OD600 0.2 to 0.3) and then diluted 1:100 into fresh media containing either 12 mM or 0 mM inducer (xylose). These cultures were incubated at 37° C. for 2.5 hr. The presence of inducer (xylose) in the medium initiates and maintains production of antisense RNA from the antisense construct, in this case. After a 2.5 hr incubation, induced and non-induced cells were respectively diluted into an assay medium containing an appropriate concentration of the antibiotic for the maintenance of the anti-sense construct. In addition, medium used to dilute induced cells was supplemented with 24 mM xylose so that addition to the assay plate would result in a final xylose concentration of 12 mM. The cells were diluted to a final OD600 value of 0.0004.
Induced and non-induced cell suspensions were dispensed (25 :l/well) into the appropriate wells of the assay plate as discussed previously. The plate was then loaded into a plate reader and incubated at constant temperature while cell growth was monitored in each well by the measurement of light scattering at 595 nm. Growth was monitored every 5 minutes until the cell culture attained a stationary growth phase. For each concentration of antibiotic, a percentage inhibition of growth was calculated at the time point corresponding to mid-exponential growth for the associated control wells (no antibiotic, plus or minus xylose). For each antibiotic and condition (plus or minus xylose), plots of percent inhibition versus Log of antibiotic concentration were generated and IC50s determined.

Experiment [2] concerns E. coli expressing antisense RNA. The experiment is described as follows: Antibiotic sensitivity of E. coli sensitized by IPTG-induced antisense RNA. Conditions: for sensitivity to antibiotic of antisense-expressing clones: initial experiments. In kind it is cell-based, Escherichia coli. The text has this: The effectiveness of the above cell-based assay was validated using constructs expressing antisense RNA to the proliferation required E. coli genes rplL, rplJ, and rplW encoding ribosomal proteins L7/L12, L10 and L23 respectively. These proteins are part of the protein synthesis apparatus of the cell and as such are required for proliferation. These constructs were used to test the effect of antisense expression on cell sensitivity to antibiotics known to bind to the ribosome and thereby inhibit protein synthesis. Constructs expressing antisense RNA to several other genes (elaD, visC, yohH, and atpE/B), the products of which are not involved in protein synthesis were used for comparison.
First, pLex5BA (Krause et al. 1997. J. Mol. Biol. 274: 365, the disclosure of which is incorporated herein by reference in its entirety) expression vectors containing antisense constructs to either rplW or to elaD were introduced into separate E. coli cell populations. Vector introduction is a technique well known to those of ordinary skill in the art. The expression vectors of this example contain IPTG inducible promoters that drive the expression of the antisense RNA in the presence of the inducer. However, those skilled in the art will appreciate that other inducible promoters may also be used. Suitable expression vectors are also well known in the art. The E. coli antisense clones to genes encoding ribosomal proteins L7/L12, L10 and L23 were used to test the effect of antisense expression on cell sensitivity to the antibiotics known to bind to these proteins. […]
The cell populations were exposed to a range of IPTG concentrations in liquid medium to obtain the growth inhibitory dose curve for each clone. First, seed cultures were grown to a particular turbidity that is measured by the optical density (OD) of the growth solution. […] The cells were grown for up to 15 hours and the extent of growth was determined by measuring the optical density of the cultures at 600 nm. […]

With `CCC[C@@H]1C[C@@H](C(=O)N[C@@H]([C@H]2O[C@H](SC)[C@H](O)[C@@H](O)[C@H]2O)[C@@H](C)O)N(C)C1` [lincomycin], the “potency in induced cells as compared to uninduced cells” value (“potency … compared to uninduced cells” below) in experiment [1] is recorded as “not significantly different”.

With `CC[C@H]1OC(=O)[C@H](C)[C@@H](O[C@H]2C[C@@](C)(OC)[C@@H](O)[C@H](C)O2)[C@H](C)[C@@H](O[C@@H]2O[C@H](C)C[C@H](N(C)C)[C@H]2O)[C@](C)(O)C[C@@H](C)C(=O)[C@H](C)[C@@H](O)[C@]1(C)O` [erythromycin], the “sensitivity to antibiotic of antisense-expressing clones” value in experiment [2] (clones antisense to non-protein synthesis genes elaD, atpB/E and visC) is given as “do not”; in experiment [2] (clones antisense to protein synthesis genes (L7/L12 & L10, L7/L12 alone, L22, L18, rRNA, Elongation Factor G)) it was “increased sensitivity”.

Turning to `CO/N=C(\C(=O)N[C@@H]1C(=O)N2C(C(=O)O)=C(COC(C)=O)CS[C@H]12)c1csc(N)n1` [cefotaxime], in experiment [1], the “potency … compared to uninduced cells” value is on record as “not significantly different”.

As for `CCn1cc(C(=O)O)c(=O)c2ccc(C)nc21` [nalidixic acid], in experiment [2] (E. coli expressing antisense to rplL and rplJ (reduced L7/L12), IPTG), the “sensitivity to antibiotic of antisense-induced cells” value is given as “does not show increased sensitivity”.

In the case of `CC(=O)O[C@H]1C[C@@]2(C)[C@@H](C[C@@H](O)[C@H]3[C@@]4(C)CC[C@@H](O)[C@@H](C)[C@@H]4CC[C@@]32C)/C1=C(\CCC=C(C)C)C(=O)O` [fusidic acid], in experiment [1], the “potency … compared to uninduced cells” value was “not significantly different”.

As for `NC[C@H]1O[C@H](O[C@H]2[C@H](O)[C@@H](O[C@H]3O[C@H](CO)[C@@H](O)[C@H](N)[C@H]3O)[C@H](N)C[C@@H]2N)[C@H](N)C[C@@H]1O` [tobramycin], the “potency … compared to uninduced cells” value in experiment [1] was “not significantly different”.

In the case of `CO[C@@]1(NC(=O)Cc2cccs2)C(=O)N2C(C(=O)O)=C(COC(N)=O)CS[C@@H]21` [cefoxitin], the “potency … compared to uninduced cells” value in experiment [1] is on record as “not significantly different”.

Consider `COc1cc(Cc2cnc(N)nc2N)cc(OC)c1OC` [trimethoprim], for which, in experiment [1], the “potency … compared to uninduced cells” value is “not significantly different”.

Consider `CN[C@H](CC(C)C)C(=O)N[C@H]1C(=O)N[C@@H](CC(N)=O)C(=O)N[C@H]2C(=O)N[C@H]3C(=O)N[C@H](C(=O)N[C@H](C(=O)O)c4cc(O)cc(O)c4-c4cc3ccc4O)[C@H](O)c3ccc(c(Cl)c3)Oc3cc2cc(c3O[C@@H]2O[C@H](CO)[C@@H](O)[C@H](O)[C@H]2O[C@H]2C[C@](C)(N)[C@H](O)[C@H](C)O2)Oc2ccc(cc2Cl)[C@H]1O` [vancomycin], for which, in experiment [1], the “potency … compared to uninduced cells” value was “not significantly different”.

Consider `CO[C@@H]1[C@@H](OC(N)=O)[C@@H](O)[C@H](Oc2ccc3c(O)c(NC(=O)c4ccc(O)c(CC=C(C)C)c4)c(=O)oc3c2C)OC1(C)C` [novobiocin], for which, in experiment [1], the “potency … compared to uninduced cells” value is on record as “significantly different”.
